Results on 21 molecules are retold here after patent EP4813463A2, “TYK2 INHIBITORS AND COMPOSITIONS AND METHODS THEREOF” (Lynk Pharmaceuticals Co. Ltd., priority 2023, dated 2024).

Like-named read-outs stand apart in the source and are kept apart here.

Assay [1] deals with T1, TYK2-JH2 domain (Homo sapiens, UniProt P29597).
T1 construct: JAK1-JH2 domain or TYK2-JH2 domain enzyme in assay buffer
Briefly: Binding activity test for JH2 domain of TYK2 (Tb-antibody/tracer FRET). The settings on record: JH2 domain enzyme; 60 min at 25°C, then 4°C overnight; read-out: TYK2 JH2 Binding IC50. As to the method:
Binding Activity test for JH2 domain of JAK1 and TYK2 […] Add 8μL/well in echo source plate, echo will add 75nL/well with 3-fold serial dilution for 11 points in assay plate. 75nL DMSO for high control and low control. […] For low control, add 5μL/well assay buffer. And then spin down at 1000rpm and centrifuge for 30 seconds. After enzyme system prepared, add 5μL of Tb-antibody solution into each well of assay plate. Spin down at 1000 rpm and centrifuge for 30sec. After Tb-antibody added, also add 5μL of tracer into the assay plate. Spin down at 1000rpm and centrifuge for 30sec. Incubate for […] at 25°C firstly and then continue to incubate the plate at 4°C overnight. Read by envision in FRET mode. The Luminescence value was recorded by a multi-label reader Envision (PerkinElmer). […] Table 2. IC50 on JH2 domain activity (nM)

For assay [2], the system named is Ba/F3-FL-TYK2-P760L cells. As to the kind of experiment: Anti-proliferative assay in engineered Ba/F3 cells (Cell-Titer Glo, 72 h). Particulars: 72 h compound treatment, concentration that causes 50% growth inhibition, read-out: Baf3-FL-T2P760L. It counts as cell-based. Here is the method: Dimerization domain of Tel protein fused with JAK kinase domain was permanently transduced into Ba/F3 cells, whose proliferation is dependent on JAK activity in the absence of IL-3 induction. These engineered Ba/F3-FL-TYK2-P760L cells were used to monitor JAK inhibitory activities of the compounds in the cellular. Ba/F3 cells were cultured in RPMI-1640 (Corning) containing 10% fetal bovine serum. Cells were seeded at 2000/well of white flat bottom 96-well plates. The well containing medium only was used as background control. After 24h growth, cells were treated with compounds. The test compounds were dissolved in DMSO to a stock concentration of 20 mM. 3-fold serially diluted compounds for 9 concentrations with top concentration of 20 µM was added into the each well. The final DMSO concentration was 0.1%. The cells continued to grow at 37°C in 5% CO2 for 72 h after compound treatment. The viability was measured by cellular ATP determination using the Cell-Titer Glo luciferase reagent (Promega). The Luminescence value was recorded by a multi-label reader Envision (PerkinElmer). Inhibition Rate was calculated relative to vehicle (DMSO) treated control wells using following formula: % Inhibition = 100−(RLU_compound−RLU_blank)/(RLU_control−RLU_blank) × 100% [formula] wherein • RLU_compound = the relative light unit of cells treated with test compounds • RLU_blank = the relative light unit of medium with DMSO only • RLU_control = the relative light unit of cells treated with DMSO only
Table 4. Ba/F3-FL-TYK2-P760L Cells IC50 Values of Exemplary Compounds

T1 sequence (P29597 589-875 limits assumed): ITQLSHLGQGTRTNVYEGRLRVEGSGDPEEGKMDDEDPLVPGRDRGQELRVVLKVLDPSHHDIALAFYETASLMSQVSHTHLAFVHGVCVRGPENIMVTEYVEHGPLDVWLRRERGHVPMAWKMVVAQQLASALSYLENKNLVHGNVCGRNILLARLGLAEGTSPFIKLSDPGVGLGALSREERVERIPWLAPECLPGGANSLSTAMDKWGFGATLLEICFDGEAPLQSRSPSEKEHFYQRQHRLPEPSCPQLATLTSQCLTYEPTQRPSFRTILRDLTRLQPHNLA

As for `[2H]C([2H])([2H])NC(=O)c1cnc(NC(=O)C2CC2)cc1Nc1nn(CC)c2ccc(C(O)C(F)(F)F)c(OC)c12` (single isomer, unassigned) [Example 71B, (R*)-6-(cyclopropanecarboxamido)-4-((1-ethyl-4-methoxy-5-(2,2,2-trifluoro-1-hydroxyethyl)-1H-indazol-3-yl)amino)-N-(methyl-d3)nicotinamide], the figures for the IC50 in assay [1] and in assay [2] were 0.25 nM and 17.9 nM, respectively.

For `COC(=O)c1cnc(NC(=O)C2CC2)cc1Nc1nn(C)c2ccc(C(OC)C(C)(F)F)c(OC)c12` (single isomer, unassigned) [Example 115A, Methyl (S*)-6-(cyclopropanecarboxamido)-4-((5-(2,2-difluoro-1-methoxypropyl)-4-methoxy-1-methyl-1H-indazol-3-yl)amino)nicotinate], the IC50 in assay [1] turned out to be 0.119 nM; in assay [2] (Mus musculus, BaF3, 72 h), 9.83 nM.

In the case of `[2H]C([2H])([2H])OC(c1ccc2c(c(Nc3cc(NC(=O)C4CC4)ncc3C(=O)OC)nn2CCOC)c1OC)C(F)(F)F` (single isomer, unassigned) [Example 157A, Methyl (S*)-6-(cyclopropanecarboxamido)-4-((4-methoxy-1-(2-methoxyethyl)-5-(2,2,2-trifluoro-1-methoxyethyl)-1H-indazol-3-yl)amino)nicotinate], the IC50 in assay [1] came out at 0.095 nM; in assay [2], 2.51 nM.

In the case of `CCC(F)(F)c1cnc(NC(=O)C2CC2)cc1Nc1nn(C)c2ccc(C(O)C(F)(F)F)c(OC)c12` (single isomer, unassigned) [Example 193B, (R*)-N-(5-(1,1-Difluoropropyl)-4-((4-methoxy-1-methyl-5-(2,2,2-trifluoro-1-hydroxyethyl)-1H-indazol-3-yl)amino)pyridin-2-yl)cyclopropanecarboxamide], the IC50 in assay [1] came out at 1.18 nM; in assay [2], 45 nM.

As for `[2H]C([2H])([2H])NC(=O)c1cnc(NC(=O)C2CC2)cc1Nc1nn(C)c2ccc([C@@H](OC)C(F)(F)F)c(OC)c12` [Example 46B, (R)-6-(cyclopropanecarboxamido)-4-((4-methoxy-1-methyl-5-(2,2,2-trifluoro-1-methoxyethyl)-1H-indazol-3-yl)amino)-N-(methyl-d3)nicotinamide], the IC50 in assay [1] is 0.18 nM; in assay [2] (Mus musculus, BaF3, 72 h) it was 11.2 nM.

For `COC(=O)c1cnc(NC(=O)C2CC2)cc1Nc1cccc(-c2cnn(C)n2)c1OC` [Example 63, Methyl 6-(cyclopropanecarboxamido)-4-((2-methoxy-3-(2-methyl-2H-1,2,3-triazol-4-yl)phenyl)amino)nicotinate], the IC50 in assay [1] was 0.285 nM; in assay [2] (Mus musculus, BaF3, 72 h) it was 48.4 nM.

For the molecule `[2H]C([2H])([2H])NC(=O)c1cnc(NC(=O)C2CC2)cc1Nc1csc2ccc(C(OC)C(F)(F)F)c(OC)c12` (stereo not drawn) [Example 72, 6-(Cyclopropanecarboxamido)-4-((4-methoxy-5-(2,2,2-trifluoro-1-methoxyethyl)benzo[b]thiophen-3-yl)amino)-N-(methyl-d3)nicotinamide], the IC50 was determined as 0.14 nM in assay [1] and 2.65 nM in assay [2] (Mus musculus, BaF3, 72 h).

As for `CONC(=O)c1cnc(NC(=O)C2CC2)cc1Nc1nn(C)c2ccc(C(OC)C(F)(F)F)c(OC)c12` (stereo not drawn) [Example 73, 6-(Cyclopropanecarboxamido)-N-methoxy-4-((4-methoxy-1-methyl-5-(2,2,2-trifluoro-1-methoxyethyl)-1H-indazol-3-yl)amino)nicotinamide], the IC50 in assay [1] was determined as 0.14 nM; in assay [2] (Mus musculus, BaF3, 72 h), 7.56 nM.

In the case of `COC(=O)c1cnc(NC(=O)C2CC2)cc1Nc1nn(C)c2ccc(C(OC)C3(F)CC3)c(OC)c12` (stereo not drawn) [Example 74, Methyl 6-(cyclopropanecarboxamido)-4-((5-((1-fluorocyclopropyl) (methoxy)methyl)-4-methoxy-1-methyl-1H-indazol-3-yl)amino)nicotinate], the IC50 in assay [1] is 0.18 nM; in assay [2] (Mus musculus, BaF3, 72 h), 30.7 nM.

With `COC(=O)c1cnc(NC(=O)[C@@H]2C[C@@H]2F)cc1Nc1nn(C)c2ccc([C@H](OC)C(F)(F)F)c(OC)c12` [Example 76, Methyl 6-((1S,2S)-2-fluorocyclopropane-1-carboxamido)-4-((4-methoxy-1-methyl-5-((S)-2,2,2-trifluoro-1-methoxyethyl)-1H-indazol-3-yl)amino)nicotinate], the IC50 in assay [1] came out at 0.09 nM; in assay [2] (Mus musculus, BaF3, 72 h), 3.49 nM.

Regarding `COCCn1nc(Nc2cc(NC(=O)C3CC3)ncc2C(=O)OC)c2c(OC)c(C(OC)C(F)(F)F)ccc21` (stereo not drawn) [Example 78, Methyl 6-(cyclopropanecarboxamido)-4-((4-methoxy-1-(2-methoxyethyl)-5-(2,2,2-trifluoro-1-methoxyethyl)-1H-indazol-3-yl)amino)nicotinate], the IC50 in assay [1] worked out at 0.17 nM; in assay [2] (Mus musculus, BaF3, 72 h), 5.26 nM.

`COC(=O)c1cnc(NC(=O)C2CC2)cc1Nc1csc2ccc(C(OC)C(F)(F)F)c(OC)c12` (stereo not drawn) [Example 111, Methyl 6-(cyclopropanecarboxamido)-4-((4-methoxy-5-(2,2,2-trifluoro-1-methoxyethyl)benzo[b]thiophen-3-yl)amino)nicotinate]: the IC50 in assay [1] came to 0.364 nM; in assay [2] (Mus musculus, BaF3, 72 h), 19 nM.

Turning to `COC(=O)c1cnc(NC(=O)C2CC2)cc1Nc1nn(C)c2ccc(C(C)OC)c(OC)c12` (stereo not drawn) [Example 112, Methyl 6-(cyclopropanecarboxamido)-4-((4-methoxy-5-(1-methoxyethyl)-1-methyl-1H-indazol-3-yl)amino)nicotinate], the IC50 in assay [1] amounted to 0.162 nM; in assay [2] (Mus musculus, BaF3, 72 h), 11.4 nM.

In the case of `COC(=O)c1cnc(NC(=O)C2CC2)cc1Nc1nn(C)c2ccc(C(OC)C3CC3)c(OC)c12` (stereo not drawn) [Example 114, Methyl 6-(cyclopropanecarboxamido)-4-((5-(cyclopropyl(methoxy)methyl)-4-methoxy-1-methyl-1H-indazol-3-yl)amino)nicotinate], the IC50 in assay [1] was 0.209 nM; in assay [2] (Mus musculus, BaF3, 72 h), 21.9 nM.

`COC(=O)c1cnc(NC(=O)C2CC2)cc1Nc1nn(C)c2ccc(C(OC)C(C)(F)F)c(OC)c12` (stereo not drawn) [Example 115, Methyl 6-(cyclopropanecarboxamido)-4-((5-(2,2-difluoro-1-methoxypropyl)-4-methoxy-1-methyl-1H-indazol-3-yl)amino)nicotinate]: the IC50 in assay [1] is 0.182 nM; in assay [2] (Mus musculus, BaF3, 72 h), 5.58 nM.

As for `CCC(F)c1cnc(NC(=O)C2CC2)cc1Nc1nn(C)c2ccc([C@H](OC)C(F)(F)F)c(OC)c12` (stereo partly drawn) [Example 144, N-(5-(1-fluoropropyl)-4-((4-methoxy-1-methyl-5-((S)-2,2,2-trifluoro-1-methoxyethyl)-1H-indazol-3-yl)amino)pyridin-2-yl)cyclopropanecarboxamide], in assay [1], the IC50 was found to be 42.1 nM.

In the case of `COC(=O)c1cnc(NC(=O)C2CC2)cc1Nc1nn(C)c2cccc(OC)c12` [Example 146, Methyl 6-(cyclopropanecarboxamido)-4-((4-methoxy-1-methyl-1H-indazol-3-yl)amino)nicotinate], the IC50 in assay [1] was 9.8 nM.

For the molecule `COC(=O)c1cnc(NC(=O)C2CC2)cc1Nc1nn(C)c2ccc(C(OC)C(F)(F)F)c(O)c12` (stereo not drawn) [Example 149, Methyl 6-(cyclopropanecarboxamido)-4-((4-hydroxy-1-methyl-5-(2,2,2-trifluoro-1-methoxyethyl)-1H-indazol-3-yl)amino)nicotinate], in assay [1], the IC50 was 0.747 nM.

On to `[2H]C([2H])([2H])CC(=O)c1cnc(NC(=O)C2CC2)cc1Nc1ncc2cnn(CC(C)(F)F)c2c1OC` [Example 155, N-(4-((1-(2,2-difluoropropyl)-7-methoxy-1H-pyrazolo[4,3-c]pyridin-6-yl)amino)-5-(propanoyl-3,3,3-d3)pyridin-2-yl)cyclopropanecarboxamide], for which the IC50 in assay [1] stood at 0.891 nM.

With `COC(=O)c1cnc(NC(=O)C2CC2)cc1Nc1nn(C)c2ccc([C@H](OCOP(=O)(O)O)C(F)(F)F)c(OC)c12` [Example 170, Sodium (S)-(1-(3-((2-(cyclopropanecarboxamido)-5-(methoxycarbonyl)pyridin-4-yl)amino)-4-methoxy-1-methyl-1H-indazol-5-yl)-2,2,2-trifluoroethoxy)methyl phosphate], in assay [1], the IC50 worked out at 0.074 nM.

Regarding `CCC(F)(F)c1cnc(NC(=O)C2CC2)cc1Nc1nc2ccc(N3CC(OC)C3)cn2n1` [Example 183, N-(5-(1,1-Difluoropropyl)-4-((6-(3-methoxyazetidin-1-yl)-[1,2,4]triazolo[1,5-a]pyridin-2-yl)amino)pyridin-2-yl)cyclopropanecarboxamide], in assay [2] (Mus musculus, BaF3, 72 h), the IC50 turned out to be 14.5 nM.
